Measured values reported in the CheMixHub viscosity set.
Several values for one entry are separate records, joined by “and”; a condition that tells them apart may be missing. Equal values may be shown once.

Experiment: xn = mol fraction of the nth substance listed

CCCCOC(C)=O + C1CCCCC1
viscosity [mPa·s], 101 kPa
Details	298.15 K	308.15 K
x1 = 0.0561	0.854	0.723
x1 = 0.156	0.801	0.676
x1 = 0.2818	0.749	0.631
x1 = 0.4867	0.693	0.585
x1 = 0.4963	0.691	0.584
x1 = 0.5327	0.685	0.579
x1 = 0.5738	0.678	0.575
x1 = 0.6816	0.667	0.568
x1 = 0.7552	0.663	0.568
x1 = 0.8686	0.663	0.575
x1 = 0.9568	0.669	0.586

CCCN + C1CCCCC1
viscosity, 101 kPa
Details	x1 = 0.00761	x1 = 0.01688	x1 = 0.02821	x1 = 0.03652	x1 = 0.04831	x1 = 0.05697	x1 = 0.06516	x1 = 0.07467	x1 = 0.08588
303.15 K	0.8113 mPa·s	0.8039 mPa·s	0.7953 mPa·s	0.789 mPa·s	0.7803 mPa·s	0.7736 mPa·s	0.7669 mPa·s	0.7583 mPa·s	0.7506 mPa·s
313.15 K	0.7093 mPa·s and 0.6999 mPa·s	0.6903 mPa·s	0.6849 mPa·s	0.6772 mPa·s	0.67 mPa·s	0.6638 mPa·s	0.6564 mPa·s	0.6488 mPa·s	–

Oc1ccccc1Cl + C1CCCCC1
viscosity [mPa·s], 303.15 K
Details	x2 = 0.1078	x2 = 0.2025	x2 = 0.3072	x2 = 0.4048	x2 = 0.6046	x2 = 0.6564	x2 = 0.7542	x2 = 0.8969
101 kPa	2.275	1.996	1.622	1.331	1.032	0.981	0.881	0.795
101.33 kPa	2.275	1.996	1.622	1.331	1.032	0.981	0.881	0.794

CCCCOC(C)=O + C1COCCO1
303.15 K, 101.3 kPa
Details	viscosity [mPa·s]
x2 = 0.1002	0.6618
x2 = 0.1988	0.682
x2 = 0.2997	0.7051
x2 = 0.3963	0.7333
x2 = 0.4977	0.7684
x2 = 0.6024	0.809
x2 = 0.7009	0.859
x2 = 0.7968	0.9174
x2 = 0.9016	0.9976

Oc1ccccc1Cl + C1COCCO1
101 kPa
Details	viscosity [mPa·s]
298.15 K, x1 = 0.2	1.965
298.15 K, x1 = 0.4	3.235
298.15 K, x1 = 0.6	5.018
298.15 K, x1 = 0.8	5.556
308.15 K, x2 = 0.1	2.996
308.15 K, x2 = 0.2	3.489
308.15 K, x2 = 0.4	3.32
308.15 K, x2 = 0.5	2.866
308.15 K, x2 = 0.6	2.311
308.15 K, x2 = 0.7	1.849
308.15 K, x2 = 0.8	1.478
308.15 K, x2 = 0.9	1.182

CCCN + C=C(C)C(=O)OC
303.15 K, 101 kPa
Details	viscosity [mPa·s]
x2 = 0.1506	0.382
x2 = 0.3776	0.4355
x2 = 0.5053	0.4623
x2 = 0.6058	0.4809
x2 = 0.8285	0.5081

CCCCOC(C)=O + CC#N
303.15 K, 101.33 kPa
Details	viscosity [mPa·s]
x2 = 0.0981	0.6208
x2 = 0.2003	0.5981
x2 = 0.3003	0.5737
x2 = 0.403	0.5485
x2 = 0.5026	0.5195
x2 = 0.5972	0.4884
x2 = 0.6977	0.4463
x2 = 0.7987	0.4071
x2 = 0.8985	0.3669

CCCOC(=O)c1ccccc1 + CC#N
viscosity [mPa·s], 101.33 kPa
Details	x1 = 0.127	x1 = 0.247	x1 = 0.362	x1 = 0.467	x1 = 0.567	x1 = 0.658	x1 = 0.748	x1 = 0.842	x1 = 0.928
293.15 K	0.439	0.48	0.544	0.614	0.755	0.879	1.113	1.522	2.048
303.15 K	0.397	0.43	0.484	0.54	0.654	0.749	0.929	1.237	1.609
313.15 K	0.362	0.386	0.431	0.479	0.57	0.652	0.786	1.025	1.307
323.15 K	0.326	0.346	0.386	0.424	0.499	0.564	0.67	0.853	1.075

Clc1ccccc1Cl + CC#N
308.15 K, 101 kPa
Details	viscosity [mPa·s]
x1 = 0.1003	0.3803
x1 = 0.2063	0.4569
x1 = 0.3069	0.5299
x1 = 0.4058	0.6077
x1 = 0.4918	0.676
x1 = 0.5925	0.7617
x1 = 0.6956	0.8443
x1 = 0.7945	0.9395
x1 = 0.9016	1.027

[O-][Cl+3]([O-])([O-])O + CC(=O)O
viscosity [mPa·s], 101 kPa
Details	x1 = 0.2029	x1 = 0.3254	x1 = 0.4484	x1 = 0.5117
293.15 K	0.2653	0.6193	0.4081	0.2388
308.15 K	0.1146	0.2603	0.1883	0.1226
323.15 K	–	0.1268	–	–

CC(C)c1ccccc1 + CC(C)(C)O
viscosity [mPa·s], 101 kPa
Details	x2 = 0.0995	x2 = 0.2007	x2 = 0.3001	x2 = 0.3998	x2 = 0.5009	x2 = 0.6007	x2 = 0.7002	x2 = 0.8005	x2 = 0.9002
303.15 K	0.6893	0.7128	0.7481	0.7954	0.8754	0.9692	1.129	1.415	1.874
308.15 K	0.6458	0.6665	0.6941	0.7344	0.8007	0.8782	1.007	1.232	1.578
313.15 K	0.6059	0.6215	0.6451	0.6782	0.7352	0.798	0.9019	1.08	1.343
318.15 K	0.5703	0.5814	0.6002	0.6279	0.6742	0.7269	0.8117	0.9531	1.153
323.15 K	0.537	0.5452	0.5604	0.5835	0.6218	0.6649	0.7349	0.8485	1.001

CCCN + CC(C)(C)O
298.15 K, 101 kPa
Details	viscosity [mPa·s]
x2 = 0.0967	0.512
x2 = 0.2039	0.727
x2 = 0.3012	0.969
x2 = 0.4	1.263
x2 = 0.4992	1.614
x2 = 0.5874	1.975
x2 = 0.6813	2.415
x2 = 0.7999	3.09
x2 = 0.9183	3.806

O=C(O)c1cc(O)c(O)c(O)c1 + CC(C)=O
viscosity [mPa·s], 101 kPa
Details	293.15 K	298.15 K	303.15 K	308.15 K	313.15 K
x1 = 0.0034	0.361	0.345	0.332	0.318	0.307
x1 = 0.0069	0.383	0.367	0.348	0.337	0.323
x1 = 0.01	0.401	0.388	0.368	0.352	0.338
x1 = 0.014	0.424	0.409	0.383	0.368	0.356

Oc1ccccc1Cl + CC(C)=O
101 kPa
Details	viscosity [mPa·s]
293.15 K, x1 = 0.09296	0.475
293.15 K, x1 = 0.1779	0.611
293.15 K, x1 = 0.3108	0.992
293.15 K, x1 = 0.4089	1.376
293.15 K, x1 = 0.5253	2.051
293.15 K, x1 = 0.6914	3.17
293.15 K, x1 = 0.8336	3.91
298.15 K, x1 = 0.101	0.442
298.15 K, x1 = 0.2004	0.644
298.15 K, x1 = 0.2997	0.857
298.15 K, x1 = 0.4006	1.217
298.15 K, x1 = 0.5	1.666
298.15 K, x1 = 0.5999	2.19
298.15 K, x1 = 0.6997	2.712
298.15 K, x1 = 0.7988	3.086
298.15 K, x1 = 0.9003	3.303
303.15 K, x1 = 0.09296	0.419
303.15 K, x1 = 0.1779	0.569
303.15 K, x1 = 0.3108	0.893
303.15 K, x1 = 0.4089	1.199
303.15 K, x1 = 0.5253	1.684
303.15 K, x1 = 0.6914	2.4
303.15 K, x1 = 0.8336	2.85
313.15 K, x1 = 0.09296	0.382
313.15 K, x1 = 0.1779	0.508
313.15 K, x1 = 0.3108	0.777
313.15 K, x1 = 0.4089	1.019
313.15 K, x1 = 0.5253	1.369
313.15 K, x1 = 0.6914	1.886
313.15 K, x1 = 0.8336	2.165
323.15 K, x1 = 0.09296	0.3515
323.15 K, x1 = 0.1779	0.465
323.15 K, x1 = 0.3108	0.687
323.15 K, x1 = 0.4089	0.893
323.15 K, x1 = 0.5253	1.154
323.15 K, x1 = 0.6914	1.527
323.15 K, x1 = 0.8336	1.735

Oc1ccccc1Cl + CC(C)CO
Details	viscosity [mPa·s]
303.15 K, 101 kPa, x1 = 0.3796	5.333

CC(C)c1ccccc1 + CC(C)O
viscosity [mPa·s], 101 kPa
Details	x2 = 0.1013	x2 = 0.2013	x2 = 0.2991	x2 = 0.4002	x2 = 0.4993	x2 = 0.6002	x2 = 0.7002	x2 = 0.8006	x2 = 0.9002
303.15 K	0.6764	0.6831	0.7003	0.7299	0.7766	0.8482	0.9452	1.104	1.34
308.15 K	0.6347	0.6402	0.6534	0.6776	0.7151	0.7732	0.8534	0.9869	1.183
313.15 K	0.5971	0.599	0.6093	0.6291	0.6596	0.7081	0.7742	0.8854	1.046
318.15 K	0.562	0.5619	0.5682	0.5853	0.611	0.6508	0.7041	0.7975	0.9303
323.15 K	0.5287	0.5275	0.5322	0.5444	0.5654	0.5976	0.6419	0.7195	0.8272

CCCCOC(C)=O + CC(C)O
viscosity [mPa·s], 100 kPa
Details	x1 = 0.081	x1 = 0.1599	x1 = 0.24	x1 = 0.35	x1 = 0.44	x1 = 0.5601	x1 = 0.65	x1 = 0.74	x1 = 0.85	x1 = 0.9397
293.15 K	1.638	1.156	0.884	0.725	0.688	0.674	0.686	0.686	0.703	0.717
298.15 K	1.439	1.038	0.812	0.684	0.652	0.648	0.652	0.652	0.665	0.673
303.15 K	1.256	0.924	0.747	0.643	0.608	0.601	0.608	0.616	0.629	0.632
308.15 K	1.119	0.847	0.687	0.592	0.56	0.557	0.564	0.564	0.582	0.584
313.15 K	0.972	0.74	0.613	0.536	0.516	0.516	0.522	0.525	0.531	0.543
318.15 K	0.862	0.658	0.538	0.482	0.469	0.474	0.481	0.487	0.496	0.502
323.15 K	0.759	0.574	0.469	0.431	0.428	0.436	0.443	0.451	0.457	0.461

CCCCCCCC(=O)O + CC(C)[C@@H]1CC[C@@H](C)C[C@H]1O
viscosity [mPa·s]
Details	293.15 K	298 K	298.15 K	303.15 K	308.15 K	313.15 K	318.15 K	323.15 K
100 kPa, x1 = 0.4	19.83	–	15.29	12.01	9.58	7.8	6.43	5.37
101 kPa, x2 = 0.333	–	12	–	–	–	–	–	–

CCCN + CCC(C)(C)O
Details	viscosity [mPa·s]
308.15 K, 101 kPa, x2 = 0.9498	2.305

CCCCOC(C)=O + CCC(C)=O
308 K, 101 kPa
Details	viscosity [mPa·s]
x1 = 0.0999	0.468
x1 = 0.2002	0.484
x1 = 0.3	0.52
x1 = 0.4	0.533
x1 = 0.4997	0.569
x1 = 0.5997	0.584
x1 = 0.7	0.606
x1 = 0.7997	0.642
x1 = 0.9004	0.669

Oc1ccccc1Cl + CCC(C)=O
298.15 K, 101 kPa
Details	viscosity [mPa·s]
x1 = 0.1005	0.517
x1 = 0.1961	0.7
x1 = 0.3003	0.913
x1 = 0.3994	1.322
x1 = 0.501	1.744
x1 = 0.6001	2.277
x1 = 0.6991	2.736
x1 = 0.8006	3.091
x1 = 0.8991	3.315
